Test results: patent US20230081986A1, “METHOD AND REAGENTS TO IMPROVE NONANIMAL OCULAR TOXICITY TESTS” (Lebrun Labs LLC, priority 2021, published 2023)

Legend:
rabbit cornea = test: Cornea exposure for different times, with and without the esterase inhibitor ebelactone; conditions: for state of the cornea: 6-minute exposure
Method: FIG. 2 depicts the effects of ebelactone on rabbit cornea.
To test this hypothesis, we incubated corneas with 100 µL of the test chemical for different exposure times and observed that methyl cyanoacetate produced a toxic effect on the eye after 6 minutes of exposure. To confirm that this increased toxicity was metabolically related, eyes were treated with ebelactone, an inhibitor of nonspecific esterases. […] Based on these findings, we updated the IVD EIT method to include the following: Each chemical is first tested using a direct 1-minute application to the eye; if negative, the chemical is then retested for 6 minutes using the metabolic test (META). All of the steps of the META test are the same as the direct test except for the dosing step. For the META, 100 µL of tear solution (saline with ascorbic acid, protein) is first added to the dosing ring, followed by the addition of 100 µL of the material to be tested.

[1] = literature review [11]; cited from earlier work

COC(=O)CC#N [methyl cyanoacetate]
state of the cornea (rabbit cornea; in the presence of ebelactone): somewhat swollen but there are mostly viable cells
state of the cornea (rabbit cornea; without ebelactone): swollen with no viable cells
effect on the eye (rabbit cornea; 100 µL, after 6 minutes of exposure): toxic effect
classification by most nonanimal tests [1]: misclassified as FN
